{"source": "patent US20210260201A1", "about": "“EXTRACELLULAR VESICLES FOR THE TREATMENT AND PREVENTION OF INFECTIONS AND OTHER DISEASES” (PHYSIS BIOTECHNOLOGIES, LLC, priority 2020, published 2021)", "origin": "cited, not measured here", "note": "Where two headings read alike, the source gives them in different places.", "data": [{"compound": "C=C(C)[C@@H]1CCC(C)=C[C@H]1c1c(O)cc(CCCCC)cc1O", "note": "[CBD, cannabidiol]", "values": [{"measurement": "bioavailability", "setting": "intranasal", "result": "34-46%"}, {"measurement": "bioavailability", "setting": "oral (edibles)", "result": "6-20%"}, {"measurement": "bioavailability", "setting": "sublingual (tinctures)", "result": "13-19%"}]}]}
